From ChEMBL document CHEMBL1145573, “Lead identification to generate isoquinolinedione inhibitors of insulin-like growth factor receptor (IGF-1R) for potential use in cancer treatment” (Bioorg Med Chem Lett, 2008)
Values after ≈ are worked out from the molar mass of the structure shown.

How the values were obtained:
[1] = Ratio of IC50 for IR to IC50 for IGFR
[2] = Inhibition of IGFR
[3] = Aqueous solubility at pH 7.4; format: physicochemical

Compound	Ratio IC50 [1]	IC50 [2] [nM]	solubility [3] [µg/mL]
O=C1NC(=O)c2ccc(Nc3ccc4c(c3)OCO4)cc2/C1=C/Nc1ccc(CN2CCCCC2)cc1	–	894	–
CC1CN(c2ccc(N/C=C3\C(=O)NC(=O)c4ccc(-c5ccoc5)cc43)cc2)CC(C)N1 (stereo unspecified)	1	629	–
O=C1NC(=O)c2ccc(Nc3ccc4[nH]ccc4c3)cc2/C1=C/Nc1ccc(CN2CCCCC2)cc1	–	> 10000	–
O=C1NC(=O)c2ccc(Br)cc2/C1=C/Nc1ccc(CN2CCCC2)cc1	–	2420	–
CN(C)Cc1ccc(N/C=C2\C(=O)NC(=O)c3ccc(Br)cc32)cc1	0.58	7170	–
O=C1NC(=O)c2ccc(Br)cc2/C1=C/Nc1ccc(CN2CCCCC2)cc1	–	2890	–
O=C1NC(=O)c2ccc(Nc3cccc4ncccc34)cc2/C1=C/Nc1ccc(CN2CCCCC2)cc1	–	5200	–
N#Cc1ccc(Nc2ccc3c(c2)/C(=C/Nc2ccc(CN4CCCCC4)cc2)C(=O)NC3=O)cc1	–	1330	–
Cc1ccc(Nc2ccc3c(c2)/C(=C/Nc2ccc(CN4CCCCC4)cc2)C(=O)NC3=O)cc1	1.14	498	–
O=C1NC(=O)c2ccc(-c3ccoc3)cc2/C1=C/Nc1ccc(CN2CCCCC2)cc1	0.75	715	–
CN1CCN(c2ccc(N/C=C3\C(=O)NC(=O)c4ccc(NS(=O)(=O)c5ccccc5)cc43)cc2)CC1	0.83	829	–
COc1cc(Nc2ccc3c(c2)/C(=C/Nc2ccc(CN4CCCCC4)cc2)C(=O)NC3=O)cc(C(F)(F)F)c1	–	> 10000	–
CC(=O)c1ccc(Nc2ccc3c(c2)/C(=C/Nc2ccc(CN4CCCCC4)cc2)C(=O)NC3=O)cc1	–	5890	–
CCOC(=O)c1ccc(Nc2ccc3c(c2)/C(=C/Nc2ccc(CN4CCCCC4)cc2)C(=O)NC3=O)cc1	–	> 10000	–
COc1ccc(Nc2ccc3c(c2)/C(=C/Nc2ccc(CN4CCCCC4)cc2)C(=O)NC3=O)cc1	–	971	–
CN(C)c1ccc(Nc2ccc3c(c2)/C(=C/Nc2ccc(CN4CCCCC4)cc2)C(=O)NC3=O)cc1	–	> 10000	–
NC(=O)c1ccc(Nc2ccc3c(c2)/C(=C/Nc2ccc(CN4CCCCC4)cc2)C(=O)NC3=O)cc1	–	957	–
O=C1NC(=O)c2ccc(Nc3ccc4c(c3)CCC4)cc2/C1=C/Nc1ccc(CN2CCCCC2)cc1	–	7930	–

Next, values leading:

Ratio IC50 [1]	IC50 [2] [nM]	solubility [3] [µg/mL]	Compound
0.62	920	–	CN(C)Cc1ccc(N/C=C2\C(=O)NC(=O)c3ccc(Nc4ccccc4)cc32)cc1
–	1130	–	N#Cc1cccc(Nc2ccc3c(c2)/C(=C/Nc2ccc(CN4CCCCC4)cc2)C(=O)NC3=O)c1
–	2390	–	O=C1NC(=O)c2ccc(Nc3cccc(Cl)c3)cc2/C1=C/Nc1ccc(CN2CCCCC2)cc1
0.87	887	–	CC(=O)c1cccc(Nc2ccc3c(c2)/C(=C/Nc2ccc(CN(C)C)cc2)C(=O)NC3=O)c1
–	4140	–	Cc1ccccc1Nc1ccc2c(c1)/C(=C/Nc1ccc(CN3CCCCC3)cc1)C(=O)NC2=O
–	> 10000	–	O=C1NC(=O)c2ccc(Nc3cccc(C(F)(F)F)c3)cc2/C1=C/Nc1ccc(CN2CCCCC2)cc1
–	> 10000	–	COc1cccc(Nc2ccc3c(c2)/C(=C/Nc2ccccc2)C(=O)NC3=O)c1
0.48	1390	–	COc1cccc(Nc2ccc3c(c2)/C(=C/Nc2ccc(CN(C)C)cc2)C(=O)NC3=O)c1
–	610	–	COc1ccccc1Nc1ccc2c(c1)/C(=C/Nc1ccc(CN3CCCCC3)cc1)C(=O)NC2=O
–	> 10000	–	O=C1NC(=O)c2ccc(Nc3ccc(Cl)cc3)cc2/C1=C/Nc1ccc(CN2CCCCC2)cc1
–	2630	–	O=C1NC(=O)c2ccc(Nc3cccc(F)c3)cc2/C1=C/Nc1ccc(CN2CCCCC2)cc1
–	4200	–	N#Cc1ccccc1Nc1ccc2c(c1)/C(=C/Nc1ccc(CN3CCCCC3)cc1)C(=O)NC2=O
–	1660	–	O=C1NC(=O)c2ccc(Nc3ccccc3Cl)cc2/C1=C/Nc1ccc(CN2CCCCC2)cc1
–	> 10000	–	O=C1NC(=O)c2ccc(Nc3cccc(Cl)c3)cc2/C1=C/Nc1ccccc1
0.64	1160	–	CCN(CC)Cc1ccc(N/C=C2\C(=O)NC(=O)c3ccc(Nc4ccc(C)cc4)cc32)cc1
0.85	540	–	CC(=O)c1cccc(Nc2ccc3c(c2)/C(=C/Nc2ccc(N4CC(C)NC(C)C4)cc2)C(=O)NC3=O)c1 (stereo unspecified)
0.87	455	–	O=C1NC(=O)c2ccc(Nc3ccccc3)cc2/C1=C/Nc1ccc(CN2CCCCC2)cc1
1.6	319	1000 (≈ 2020 µM)	CC(=O)c1cccc(Nc2ccc3c(c2)/C(=C/Nc2ccc(N4CCN(C)CC4)cc2)C(=O)NC3=O)c1
–	1080	–	COc1cccc(Nc2ccc3c(c2)/C(=C/Nc2ccc(CN4CCCCC4)cc2)C(=O)NC3=O)c1
0.72	438	–	CC(=O)c1cccc(Nc2ccc3c(c2)/C(=C/Nc2ccc(CN4CCCCC4)cc2)C(=O)NC3=O)c1
0.69	566	–	COc1ccc(Nc2ccc3c(c2)/C(=C/Nc2ccc(CN(C)C)cc2)C(=O)NC3=O)cc1
–	> 10000	–	Cc1cccc(Nc2ccc3c(c2)/C(=C/Nc2ccc(CN4CCCCC4)cc2)C(=O)NC3=O)c1
–	> 10000	–	Nc1cccc(Nc2ccc3c(c2)/C(=C/Nc2ccc(CN4CCCCC4)cc2)C(=O)NC3=O)c1
